{"source": "paper PMC10810011", "about": "(Expert opinion on drug delivery, 2023)", "key": {"[1]": {"system": "Salmonella typhimurium TA98", "test": "Ames test, strain TA98", "conditions": "+S9 or -S9"}, "5-HT3": {"biological_target": "T1, 5-HT3 (Homo sapiens, UniProt P46098)", "T1 sequence (P46098 24-478)": "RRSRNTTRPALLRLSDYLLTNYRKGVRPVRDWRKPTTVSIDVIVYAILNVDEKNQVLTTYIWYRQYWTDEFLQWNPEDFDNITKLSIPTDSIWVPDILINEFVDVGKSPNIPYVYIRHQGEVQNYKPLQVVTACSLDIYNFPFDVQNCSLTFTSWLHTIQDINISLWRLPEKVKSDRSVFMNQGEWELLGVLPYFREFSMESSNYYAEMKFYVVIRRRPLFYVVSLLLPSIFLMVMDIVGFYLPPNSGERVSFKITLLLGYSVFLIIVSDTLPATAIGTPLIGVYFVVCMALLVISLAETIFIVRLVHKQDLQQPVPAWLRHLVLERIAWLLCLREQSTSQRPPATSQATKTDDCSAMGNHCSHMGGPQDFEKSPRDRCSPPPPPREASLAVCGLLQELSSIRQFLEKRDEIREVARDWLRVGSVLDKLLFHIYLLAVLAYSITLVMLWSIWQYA", "test": "InVEST radioligand filter binding, ion channel 5-HT3", "conditions": "M13 20 μM, 100 = no effect"}, "AOM/DSS-induced CAC mice": {"system": "AOM/DSS-induced CAC mice", "test": "AOM/DSS-induced CAC mouse model", "format": "in vivo", "conditions": "oral 5 mg/kg every 2 days, day 60"}, "[2]": {"test": "Metabolic stability with mouse intestinal microsomes", "conditions": "30 min incubation, HPLC"}, "Log D7.4 shake-flask": {"test": "Log D7.4 shake-flask", "format": "physicochemical", "conditions": "1-octanol/phosphate buffer pH 7.4, shake-flask, room temperature"}, "D1 dopamine": {"biological_target": "D1 dopamine (Homo sapiens, UniProt P21728)", "sequence (P21728 whole entry)": "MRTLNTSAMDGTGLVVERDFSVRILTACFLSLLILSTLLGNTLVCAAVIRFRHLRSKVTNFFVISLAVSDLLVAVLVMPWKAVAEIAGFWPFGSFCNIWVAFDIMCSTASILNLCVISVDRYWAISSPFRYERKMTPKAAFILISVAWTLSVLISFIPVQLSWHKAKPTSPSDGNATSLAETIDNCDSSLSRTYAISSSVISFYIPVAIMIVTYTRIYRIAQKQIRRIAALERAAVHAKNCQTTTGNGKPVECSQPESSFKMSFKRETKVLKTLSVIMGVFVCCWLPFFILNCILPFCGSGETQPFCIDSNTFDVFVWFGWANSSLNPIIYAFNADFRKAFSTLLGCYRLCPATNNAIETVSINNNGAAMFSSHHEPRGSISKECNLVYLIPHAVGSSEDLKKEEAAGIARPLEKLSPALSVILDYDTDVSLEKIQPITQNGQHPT", "conditions": "M13 20 μM, 100 = no effect"}, "5-HT1A": {"biological_target": "5-HT1A (Homo sapiens, UniProt P08908)", "sequence (P08908 whole entry)": "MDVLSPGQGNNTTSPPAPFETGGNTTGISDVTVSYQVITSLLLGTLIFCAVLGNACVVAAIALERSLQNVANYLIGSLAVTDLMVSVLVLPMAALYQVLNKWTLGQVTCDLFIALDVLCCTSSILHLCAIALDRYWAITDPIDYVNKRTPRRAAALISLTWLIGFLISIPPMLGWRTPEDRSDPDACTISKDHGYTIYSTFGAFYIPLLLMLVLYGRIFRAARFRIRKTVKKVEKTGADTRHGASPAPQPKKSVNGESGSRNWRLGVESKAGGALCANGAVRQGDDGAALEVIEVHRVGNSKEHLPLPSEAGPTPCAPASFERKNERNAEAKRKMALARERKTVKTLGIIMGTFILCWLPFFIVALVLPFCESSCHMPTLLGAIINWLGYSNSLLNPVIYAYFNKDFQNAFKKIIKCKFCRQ", "test": "InVEST radioligand filter binding, 5-HT1A", "conditions": "M13 20 μM, 100 = no effect"}, "D3 dopamine": {"biological_target": "D3 dopamine (Homo sapiens, UniProt P35462)", "sequence (P35462 whole entry)": "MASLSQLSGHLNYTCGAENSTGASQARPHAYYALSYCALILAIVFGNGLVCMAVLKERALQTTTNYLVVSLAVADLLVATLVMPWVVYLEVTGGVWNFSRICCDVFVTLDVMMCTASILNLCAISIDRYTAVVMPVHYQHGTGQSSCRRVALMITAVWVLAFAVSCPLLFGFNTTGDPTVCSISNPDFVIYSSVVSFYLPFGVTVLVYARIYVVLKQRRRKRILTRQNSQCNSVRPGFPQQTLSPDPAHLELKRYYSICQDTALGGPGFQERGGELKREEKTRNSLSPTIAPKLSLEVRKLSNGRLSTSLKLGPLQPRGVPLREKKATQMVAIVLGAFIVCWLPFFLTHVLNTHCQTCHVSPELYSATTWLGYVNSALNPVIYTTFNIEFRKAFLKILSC", "test": "InVEST radioligand filter binding, D3 dopamine", "conditions": "M13 20 μM, 100 = no effect"}, "pKa determination": {"test": "pKa determination", "format": "physicochemical", "conditions": "UV metric at pH 2–12"}, "Opioid delta": {"biological_target": "Opioid delta (Homo sapiens, UniProt P41143)", "sequence (P41143 whole entry)": "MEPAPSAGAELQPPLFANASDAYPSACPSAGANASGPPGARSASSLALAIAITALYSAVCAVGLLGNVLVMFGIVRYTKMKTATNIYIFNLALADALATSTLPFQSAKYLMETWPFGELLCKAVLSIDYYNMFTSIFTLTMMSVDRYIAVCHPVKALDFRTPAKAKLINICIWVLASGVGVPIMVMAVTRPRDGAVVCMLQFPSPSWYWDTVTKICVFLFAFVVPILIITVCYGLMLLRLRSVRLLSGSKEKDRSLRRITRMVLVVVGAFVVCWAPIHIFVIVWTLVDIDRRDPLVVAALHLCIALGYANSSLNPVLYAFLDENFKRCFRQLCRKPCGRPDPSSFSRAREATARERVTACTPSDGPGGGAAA", "conditions": "M13 20 μM, 100 = no effect"}, "[3]": {"system": "HC-CSC (human colon cancer stem cells)", "test": "MTT cytotoxicity, 2D HC-CSC", "format": "cell-based", "conditions": "24 h"}, "Thrombin alpha": {"biological_target": "Thrombin alpha (Homo sapiens, UniProt P00734)", "test": "InVEST enzymatic activity, Thrombin alpha", "format": "biochemical", "conditions": "M13 20 μM, 100 = no effect"}, "AHR-inhibition": {"biological_target": "T2, AHR-inhibition (Homo sapiens, UniProt P35869)", "T2 sequence (P35869 11-848)": "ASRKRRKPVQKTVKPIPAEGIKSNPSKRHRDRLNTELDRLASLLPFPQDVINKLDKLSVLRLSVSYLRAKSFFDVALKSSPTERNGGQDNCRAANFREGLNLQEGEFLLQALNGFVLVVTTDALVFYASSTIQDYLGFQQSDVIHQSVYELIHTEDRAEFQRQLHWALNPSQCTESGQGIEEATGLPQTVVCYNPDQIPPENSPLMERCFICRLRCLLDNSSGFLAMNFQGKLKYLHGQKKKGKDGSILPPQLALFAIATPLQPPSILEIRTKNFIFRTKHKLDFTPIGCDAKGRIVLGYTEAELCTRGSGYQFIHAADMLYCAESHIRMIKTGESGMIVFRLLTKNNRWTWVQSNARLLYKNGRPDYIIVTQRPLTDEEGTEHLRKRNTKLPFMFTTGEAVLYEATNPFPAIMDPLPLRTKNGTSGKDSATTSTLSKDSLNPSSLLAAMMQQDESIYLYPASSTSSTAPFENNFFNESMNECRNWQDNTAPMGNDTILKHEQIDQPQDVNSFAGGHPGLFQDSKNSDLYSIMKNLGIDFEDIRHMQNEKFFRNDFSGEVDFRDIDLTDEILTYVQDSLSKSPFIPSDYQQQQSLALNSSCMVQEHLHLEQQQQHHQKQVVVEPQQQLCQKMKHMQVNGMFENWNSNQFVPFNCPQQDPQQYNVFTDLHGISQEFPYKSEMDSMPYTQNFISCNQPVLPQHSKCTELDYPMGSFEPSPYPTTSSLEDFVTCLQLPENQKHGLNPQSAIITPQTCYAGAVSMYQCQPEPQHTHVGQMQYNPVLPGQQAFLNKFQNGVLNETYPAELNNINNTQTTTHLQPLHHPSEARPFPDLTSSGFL", "test": "InVEST fluorescence polarization binding/cell-based activity, AHR-inhibition", "conditions": "M13 20 μM, 100 = no effect"}, "[4]": {"test": "Kinetic solubility in pure water", "format": "physicochemical", "conditions": "room temperature, 24 h"}, "[5]": {"system": "intestinal microbiota of AOM/DSS-induced CAC mice", "test": "Intestinal microbiota analysis in AOM/DSS-induced CAC mice", "format": "in vivo, mouse", "conditions": "feces day 60"}, "5-HT1B": {"biological_target": "5-HT1B (Homo sapiens, UniProt P28222)", "sequence (P28222 whole entry)": "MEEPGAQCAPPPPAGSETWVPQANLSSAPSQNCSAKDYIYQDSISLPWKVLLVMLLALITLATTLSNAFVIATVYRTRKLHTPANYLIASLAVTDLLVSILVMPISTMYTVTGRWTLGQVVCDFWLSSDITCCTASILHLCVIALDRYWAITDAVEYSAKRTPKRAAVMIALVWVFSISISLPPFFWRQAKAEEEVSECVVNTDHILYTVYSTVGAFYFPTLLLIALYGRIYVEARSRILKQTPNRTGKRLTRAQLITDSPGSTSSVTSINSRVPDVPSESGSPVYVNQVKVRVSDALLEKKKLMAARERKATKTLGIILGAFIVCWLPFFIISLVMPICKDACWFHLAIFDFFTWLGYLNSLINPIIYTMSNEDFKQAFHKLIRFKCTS", "test": "InVEST radioligand filter binding, 5-HT1B", "conditions": "5-HT1B, M13 20 μM, 100 = no effect"}, "A2A adenosine": {"biological_target": "A2A adenosine (Homo sapiens, UniProt P29274)", "sequence (P29274 whole entry)": "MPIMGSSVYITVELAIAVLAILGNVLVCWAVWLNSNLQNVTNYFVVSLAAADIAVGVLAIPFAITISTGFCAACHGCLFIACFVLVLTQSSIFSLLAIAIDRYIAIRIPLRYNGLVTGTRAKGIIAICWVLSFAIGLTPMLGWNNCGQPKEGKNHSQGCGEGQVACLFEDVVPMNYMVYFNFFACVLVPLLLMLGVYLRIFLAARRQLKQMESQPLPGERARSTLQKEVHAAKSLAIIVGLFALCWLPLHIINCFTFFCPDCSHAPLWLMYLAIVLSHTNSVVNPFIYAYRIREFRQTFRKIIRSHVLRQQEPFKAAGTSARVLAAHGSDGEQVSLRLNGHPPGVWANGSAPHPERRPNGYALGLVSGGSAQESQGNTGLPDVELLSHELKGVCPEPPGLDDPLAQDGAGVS", "conditions": "M13 20 μM, 100 = no effect"}, "CD-1 mice": {"system": "CD-1 mice", "test": "Single-dose maximum tolerated dose", "format": "in vivo, mouse"}, "[6]": {"system": "Salmonella typhimurium TA100", "test": "Ames test, strain TA100", "conditions": "+S9 or -S9"}, "D2S dopamine": {"biological_target": "D2S dopamine (Homo sapiens, UniProt P14416)", "sequence (P14416 1-414 isoform P14416-2)": "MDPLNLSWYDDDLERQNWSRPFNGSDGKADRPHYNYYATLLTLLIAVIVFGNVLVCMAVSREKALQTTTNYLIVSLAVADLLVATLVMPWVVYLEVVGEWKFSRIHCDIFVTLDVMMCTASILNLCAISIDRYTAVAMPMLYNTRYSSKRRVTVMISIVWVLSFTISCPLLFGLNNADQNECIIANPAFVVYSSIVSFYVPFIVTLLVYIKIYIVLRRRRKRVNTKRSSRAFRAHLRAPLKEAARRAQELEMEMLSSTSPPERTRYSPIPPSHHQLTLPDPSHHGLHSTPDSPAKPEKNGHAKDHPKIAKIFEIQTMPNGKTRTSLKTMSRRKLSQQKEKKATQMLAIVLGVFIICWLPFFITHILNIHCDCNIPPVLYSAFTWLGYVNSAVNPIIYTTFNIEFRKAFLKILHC", "test": "InVEST radioligand filter binding, D2S dopamine", "conditions": "M13 20 μM, 100 = no effect"}, "histamine H1": {"biological_target": "histamine H1 (Homo sapiens, UniProt P35367)", "sequence (P35367 whole entry)": "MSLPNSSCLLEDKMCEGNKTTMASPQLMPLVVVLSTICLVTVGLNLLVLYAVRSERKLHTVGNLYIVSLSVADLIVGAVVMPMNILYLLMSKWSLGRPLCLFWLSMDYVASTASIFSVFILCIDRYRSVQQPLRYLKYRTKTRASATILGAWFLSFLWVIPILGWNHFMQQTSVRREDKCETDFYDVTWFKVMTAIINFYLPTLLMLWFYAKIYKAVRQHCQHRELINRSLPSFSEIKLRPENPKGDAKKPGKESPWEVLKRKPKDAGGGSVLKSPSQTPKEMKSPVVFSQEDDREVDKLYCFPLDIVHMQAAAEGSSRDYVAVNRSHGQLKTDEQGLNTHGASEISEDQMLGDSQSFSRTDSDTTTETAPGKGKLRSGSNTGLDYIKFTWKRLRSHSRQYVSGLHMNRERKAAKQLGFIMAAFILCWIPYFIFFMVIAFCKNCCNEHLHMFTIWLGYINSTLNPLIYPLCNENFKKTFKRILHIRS", "conditions": "M13 20 μM, 100 = no effect"}}, "data": [{"smiles": "CCCCCC(CC(=O)CCc1ccc(O)c(OC)c1)SC[C@H](NC(=O)CC[C@H](N)C(=O)O)C(=O)NCC(=O)O", "note": "(stereo partly shown) [M13, 5-glutathione-6-shogaol]", "values": [{"measurement": "number of revertant colonies", "setting": "[1]; TA98, 156 ~ 5000 μg/plate", "result": "did not increase"}, {"measurement": "mutation factor", "setting": "[1]; TA98, all concentrations 156 ~ 5000 μg/plate", "result": "less than 1.6"}, {"measurement": "% Activity Data 1", "setting": "5-HT3; repetition 1", "result": 98, "unit": "%"}, {"measurement": "% Activity Data 2", "setting": "5-HT3; repetition 2", "result": 100, "unit": "%"}, {"measurement": "number of tumors compared with the AOM/DSS group", "setting": "AOM/DSS-induced CAC mice", "result": "failed to reduce"}, {"measurement": "% of the input retained after incubation with mouse intestinal microsomes", "setting": "[2]", "result": 86, "unit": "%"}, {"measurement": "LogD7.4", "setting": "Log D7.4 shake-flask", "result": "−1.75"}, {"measurement": "% Activity Data 1", "setting": "D1 dopamine; repetition 1", "result": 100, "unit": "%"}, {"measurement": "% Activity Data 2", "setting": "D1 dopamine; repetition 2", "result": 116, "unit": "%"}, {"measurement": "% Activity Data 1", "setting": "5-HT1A; repetition 1", "result": 102, "unit": "%"}, {"measurement": "% Activity Data 2", "setting": "5-HT1A; repetition 2", "result": 100, "unit": "%"}, {"measurement": "% Activity Data 1", "setting": "D3 dopamine; repetition 1", "result": 96, "unit": "%"}, {"measurement": "% Activity Data 2", "setting": "D3 dopamine; repetition 2", "result": 100, "unit": "%"}, {"measurement": "pKa1", "setting": "pKa determination", "result": 3.24}, {"measurement": "pKa2", "setting": "pKa determination", "result": 9.12}, {"measurement": "pKa3", "setting": "pKa determination", "result": 10.42}, {"measurement": "% Activity Data 1", "setting": "Opioid delta; repetition 1", "result": 98, "unit": "%"}, {"measurement": "% Activity Data 2", "setting": "Opioid delta; repetition 2", "result": 104, "unit": "%"}, {"measurement": "fold by which IC50 against HIEC-6 is higher than against HC-CSC", "setting": "[3]", "result": 5.8, "unit": "fold"}, {"measurement": "IC50", "setting": "[3]; HC-CSC", "result": 17.4, "unit": "µM"}, {"measurement": "% Activity Data 1", "setting": "Thrombin alpha; repetition 1", "result": 96, "unit": "%"}, {"measurement": "% Activity Data 2", "setting": "Thrombin alpha; repetition 2", "result": 97, "unit": "%"}, {"measurement": "% Activity Data 1", "setting": "AHR-inhibition; repetition 1", "result": 98, "unit": "%"}, {"measurement": "% Activity Data 2", "setting": "AHR-inhibition; repetition 2", "result": 101, "unit": "%"}, {"measurement": "kinetic solubility", "setting": "[4]", "result": "> 200", "unit": "µM"}, {"measurement": "unique species (Venn diagram vs WT and AOM/DSS groups)", "setting": "[5]", "result": "three"}, {"measurement": "% Activity Data 1", "setting": "5-HT1B; repetition 1", "result": 100, "unit": "%"}, {"measurement": "% Activity Data 2", "setting": "5-HT1B; repetition 2", "result": 102, "unit": "%"}, {"measurement": "% Activity Data 1", "setting": "A2A adenosine; repetition 1", "result": 99, "unit": "%"}, {"measurement": "% Activity Data 2", "setting": "A2A adenosine; repetition 2", "result": 100, "unit": "%"}, {"measurement": "pathological sign in the anatomical organs", "setting": "CD-1 mice; single oral dose 1000 mg/kg, day 7", "result": "no pathological sign"}, {"measurement": "body weight change, spleen-to-body weight ratio, blood physiological and biochemical indexes", "setting": "CD-1 mice; single oral dose 1000 mg/kg, day 7, vs PBS control", "result": "no significant difference"}, {"measurement": "death during the experiment", "setting": "CD-1 mice; single oral dose 1000 mg/kg, female CD-1 mice, 7 days", "result": "did not observe any death"}, {"measurement": "maximum tolerated dose", "setting": "CD-1 mice; single oral dose, mice", "result": "> 1000", "unit": "mg/kg"}, {"measurement": "number of revertant colonies", "setting": "[6]; TA100, 156 ~ 5000 μg/plate", "result": "did not increase"}, {"measurement": "mutation factor", "setting": "[6]; TA100, all concentrations 156 ~ 5000 μg/plate", "result": "less than 1.6"}, {"measurement": "% Activity Data 1", "setting": "D2S dopamine; repetition 1", "result": 106, "unit": "%"}, {"measurement": "% Activity Data 2", "setting": "D2S dopamine; repetition 2", "result": 89, "unit": "%"}, {"measurement": "% Activity Data 1", "setting": "histamine H1; repetition 1", "result": 102, "unit": "%"}, {"measurement": "% Activity Data 2", "setting": "histamine H1; repetition 2", "result": 99, "unit": "%"}]}]}
